{"source": "patent US11976083B2", "about": "“Inhibitors of peptidylarginine deiminases” (Gilead Sciences, Inc., priority 2020, dated 2024)"}
{"biological_target": "T1, human PAD4 (Homo sapiens, UniProt Q9UM07)", "T1 construct": "human PAD4 (NM_012387), A2-P663, was PCR amplified; His-SUMO (N, cleaved yes); made in house; host or cells: E. coli BL21(DE3)", "T1 sequence (Q9UM07 2-663)": "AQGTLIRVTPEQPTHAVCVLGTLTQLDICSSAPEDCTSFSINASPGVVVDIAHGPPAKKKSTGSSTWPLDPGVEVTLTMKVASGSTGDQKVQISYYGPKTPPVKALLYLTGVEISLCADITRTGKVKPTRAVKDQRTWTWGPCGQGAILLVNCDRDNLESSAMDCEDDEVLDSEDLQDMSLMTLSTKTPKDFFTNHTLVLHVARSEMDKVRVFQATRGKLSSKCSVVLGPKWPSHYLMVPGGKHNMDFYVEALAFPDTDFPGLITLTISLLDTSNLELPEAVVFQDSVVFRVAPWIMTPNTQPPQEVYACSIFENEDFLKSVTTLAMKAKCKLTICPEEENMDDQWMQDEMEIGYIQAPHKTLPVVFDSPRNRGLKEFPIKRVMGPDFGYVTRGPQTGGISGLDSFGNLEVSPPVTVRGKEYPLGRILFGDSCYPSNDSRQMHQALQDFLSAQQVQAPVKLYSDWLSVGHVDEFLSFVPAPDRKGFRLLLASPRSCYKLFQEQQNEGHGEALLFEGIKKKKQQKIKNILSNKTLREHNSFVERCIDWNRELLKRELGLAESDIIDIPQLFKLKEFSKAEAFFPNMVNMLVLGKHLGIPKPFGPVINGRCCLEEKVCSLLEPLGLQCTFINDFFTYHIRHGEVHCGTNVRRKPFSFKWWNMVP", "test": "In vitro PAD4 BAEE biochemical assay", "settings": "BAEE substrate 3 mM, 5 nM PAD4, 2 mM calcium chloride; geometric mean of multiple experiments", "in_short": "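Recombinant human PAD4 (5 nM final) with 2 mM CaCl2 was preincubated with compound 30 min at 25 °C in MOPS buffer pH 7.6, then reacted with 3 mM BAEE for 2 h at 25 °C. After EDTA stop, released ammonia was detected by o-phthalaldehyde/DTT fluorescence (ex 405/em 535 nm); IC50 from four-parameter fit, geometric mean.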", "units": {"IC50": "nM"}}
{"smiles": "COc1cc(C(=O)N2CC[C@@H](OC(F)F)[C@@H](N)C2)cc2nc(-c3cc4ccc5nc4n3CCCCCc3ccccc3C(=O)N[C@@H]5C)n(C)c12", "note": "[Example 491, (2~{R})-17-[5-[(3~ {S},4~{R})-3-amino-4-(difluoromethoxy)piperidine-1-carbonyl]-7-methoxy-1-methyl-benzimidazol-2-yl]-2-methyl-3,16,22-triazatetracyclo [14.5.2.0^{5,10}.0^{19,23}] tricosa-1(22),5(10), 6,8,17,19(23),20-heptaen-4-one]", "IC50": 253}
{"smiles": "COc1cc(C(=O)N2CC[C@@H](OC(F)F)[C@@H](N)C2)cc2nc(-c3cc4ccc5nc4n3CCCCCc3cnccc3C(=O)N[C@@H]5C)n(C)c12", "note": "[Example 492, (2~{R})-17-[5-[(3~{S}, 4~{R})-3-amino-4-(difluoromethoxy)piperidine-1-carbonyl]-7-methoxy-1-methyl-benzimidazol-2-yl]-2-methyl-3,8,16,22-tetrazatetracyclo [14.5.2.0^{5,10}.0^{19,23}] tricosa-1(22),5(10), 6,8,17,19(23),20-heptaen-4-one]", "IC50": 156}
{"smiles": "COCCO[C@@H]1CCN(C(=O)c2cc(OC)c3c(c2)nc(-c2cc4ccc5nc4n2CCCCC[C@@H]2C[C@H]2C(=O)N[C@@H]5C)n3C)C[C@@H]1N", "note": "[Example 493, (2~{R},5~{R},7~{R})-14-[5-[(3~{S},4~{R})-3-amino-4-(2-methoxyethoxy)piperidine-1-carbonyl]-7-methoxy-1-methyl-benzimidazol-2-yl]-2-methyl-3,13,19-triazatetracyclo [11.5.2.0^{5,7}.0^{16,20}] icosa-1(19),14,16(20), 17-tetraen-4-one]", "IC50": 76}
{"smiles": "COc1cc(C(=O)N2CC[C@@H](OCC34CC(F)(C3)C4)[C@@H](N)C2)cc2nc(-c3cc4ccc5nc4n3CCCCC[C@@H]3C[C@H]3C(=O)N[C@@H]5C)n(C)c12", "note": "[Example 494]", "IC50": 136}
{"smiles": "COc1cc(C(=O)N[C@H]2CNCCC2(F)F)cc2nc(-c3cc4ccc5nc4n3CCC/C=C/c3ccccc3C(=O)N[C@@H]5C)n(C)c12", "note": "[Example 495, ~{N}-[(3~{S})-4,4-difluoro-3-piperidyl]-7-methoxy-1-methyl-2-[(2~{R},11~{E})-2-methyl-4-oxo-3,16,22-triazatetracyclo[14.5.2.0^ {5,10}.0^{19,23}]tricosa-1(22),5(10),6,8,11, 17,19(23),20-octaen-17-yl] benzimidazole-5-carboxamide]", "IC50": 518}
{"smiles": "COc1cc(C(=O)N2CC[C@@H](OC)[C@@H](N)C2)cc2nc(-c3cc4ccc5nc4n3CCC/C=C/c3ccccc3C(=O)N[C@@H]5C)n(C)c12", "note": "[Example 496, (2~{R},11~{E})-17-[5-[(3~{S},4~{R})-3-amino-4-methoxy-piperidine-1-carbonyl]-7-methoxy-1-methyl-benzimidazol-2-yl]-2-methyl-3,16,22-triazatetracyclo[14.5.2.0^ {5,10).0^{19,23}]tricosa-1(22),5(10),6,8,11,17,19 (23),20-octaen-4-one]", "IC50": 125}
{"smiles": "C[C@H]1NS(=O)(=O)CCCC/C=C/Cn2c(-c3nc4cc(C(=O)N[C@H]5CNCC[C@@H]5F)c(F)cc4n3C)cc3ccc1nc32", "note": "[Example 497, 6-fluoro-~{N}-[(3~ {S},4~{S})-4-fluoro-3-piperidyl]-1-methyl-2-[(3~{E},11~{R})-11-methyl-9,9-dioxo-9$1^6-thia-1,10,19-triazatricyclo[10.5.2.0^{15,18}]nonadeca-3,12(19),13,15 (18),16-pentaen-17-yl]benzimidazole-5-carboxamide]", "IC50": 54}
{"smiles": "C[C@H]1NC(=O)c2ncccc2CCCCCn2c(-c3nc4cc(C(=O)N[C@H]5CNCC[C@@H]5F)c(F)cc4n3C)cc3ccc1nc32", "note": "[Example 498, 6-fluoro-~{N}-[(3~{S}, 4~{S})-4-fluoro-3-piperidyl]-1-methyl-2-[(2~{R})-2-methyl-4-oxo-3,6,16,22-tetrazatetracyclo [14.5.2.0^{5,10}.0^ {19,23}]tricosa-1(22), 5,7,9,17,19(23),20-heptaen-17-yl]benzimidazole-5-carboxamide]", "IC50": 67}
